# Where two headings read alike, the source gives them in different places.
# How the values were obtained:
# [1] = target: T1, NTR1 (Homo sapiens, UniProt P30989); test: ^125I-NT binding to PC3 cells; conditions: for NT Binding Assay: ability to enhance NT binding in PC3 cells; for Effect on NT binding in PC3 cells: n=3; for NT binding increased as much as / up to (fold): maximal enhancement of NT binding to PC3 cells
# T1 construct: endogenous in cells; host or cells: PC3 cells (ATCC)
# [2] = design: key: +: All of the compounds listed in Table 12 were anticancerous; conditions: from anticancer literature; cited from earlier work
# [3] = tested on: NT-induced inositol phosphate (IP) formation in PC3 cells; test: NT-induced IP formation in PC3 cells; format: cell-based; conditions: for IC50: Homo sapiens, PC-3; for IP Formation Efficacy (% decrease): maximal % decrease in NT-induced IP formation
# [4] = tested on: 5-LOX; conditions: range of reported values, various blood cell systems; cited from earlier work
# [5] = tested on: PC3 cells; test: NT-induced proliferation of PC3 cells (^3H-thymidine); format: cell-based; conditions: Homo sapiens, PC-3; 24 hours, 10 nM NT; read-out: IC50 for inhibition of NT-induced proliferation
# [6] = [agent] giving 75% increase in NT binding
# [7] = [agent] giving 50% decrease in IP formation
# [8] = [agent] that decreased IP formation by 40%
# [9] = general reducing agents and antioxidants
# [10] = maximal % increase in NT binding observed for each agent
# [11] = [agent] giving 100% increase in NT binding
# T1 sequence (P30989 whole entry): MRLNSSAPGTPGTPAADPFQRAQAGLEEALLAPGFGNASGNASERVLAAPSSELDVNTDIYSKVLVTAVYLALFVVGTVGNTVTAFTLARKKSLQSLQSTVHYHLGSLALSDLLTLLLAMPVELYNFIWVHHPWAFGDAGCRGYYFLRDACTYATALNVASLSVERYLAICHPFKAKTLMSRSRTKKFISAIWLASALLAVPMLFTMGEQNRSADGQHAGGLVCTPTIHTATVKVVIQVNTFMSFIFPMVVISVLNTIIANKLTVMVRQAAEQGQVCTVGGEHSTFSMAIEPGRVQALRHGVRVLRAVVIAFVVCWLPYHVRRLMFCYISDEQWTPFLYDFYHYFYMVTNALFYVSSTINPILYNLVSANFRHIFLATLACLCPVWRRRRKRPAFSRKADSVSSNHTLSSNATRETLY
compound,measurement,setting,value
O=c1cc(-c2ccc(O)c(O)c2)oc2cc(O)cc(O)c12 [luteolin],EC50,[1]; [6],40 µM
same,NT Binding Assay,[1],+
same,Anti-cancer,[2],+
same,IC50,[3]; [7],38 µM
CC1=C(C)C(=O)C(CCCCC#CCCCC#CCO)=C(C)C1=O [AA861],NT Binding Efficacy % increase,[1]; LOX blockers,155 % increase
same,IC50,[3]; [8],7 µM
Cc1ncc(CO)c(CO)c1O [pyridoxine],Effect on NT binding,[1]; [9],not much affected
same,Effect on NT binding in PC3 cells,[1]; used at 20-180 μM,ineffective
"COc1ccc([C@@H]2Sc3ccccc3N(CCN(C)C)C(=O)[C@@H]2OC(C)=O)cc1 [Diltiazem, diltiazem]",NT Binding Efficacy % increase,[1]; [10],38 % increase
same,NT binding increased as much as / up to (fold),[1],≤ 1.4 fold
"CC1=CC(=O)c2ccccc2C1=O [vitamin K, menadione]",NT binding (% of control) at 180 µM,[1]; 180 μM,168 ± 8%
CCOC(=O)C1=C(C)NC(C)=C(C(=O)OC)C1c1cccc([N+](=O)[O-])c1 (stereo not shown) [nitrendipine],IC50,[3]; [7],2 µM
antimycin A,Anti-cancer,[2],+
"CC1=C(/C=C/C(C)=C/C=C/C(C)=C/C(=O)O)C(C)(C)CCC1 [Retinoic Acid, retinoic acid]",NT Binding Efficacy % increase,[1]; LOX blockers,180 % increase
same,IC50,[3]; [8],7 µM
C[C@@H]1O[C@@H](OC[C@H]2O[C@@H](Oc3c(-c4ccc(O)c(O)c4)oc4cc(O)cc(O)c4c3=O)[C@H](O)[C@@H](O)[C@@H]2O)[C@H](O)[C@H](O)[C@H]1O [rutin],Efficacy for altering NT binding to NTR,[1]; flavonoids,inactive
"O[C@H](CS)[C@H](O)CS (racemic) [DTT, dithiothreitol]",Effect on NT binding,[1]; [9],not much affected
O=C(NCCCCCCNC(=O)ON=C1CCCCC1)ON=C1CCCCC1 [RHC-80267],NT Binding Assay,[1],+
same,Anti-cancer,[2],+
Clc1ccc(COC(Cn2ccnc2)c2ccc(Cl)cc2Cl)c(Cl)c1 (stereo not shown) [miconazole],IP Formation Efficacy (% decrease),[3],54 % decrease
CN1CCN(CCCN2c3ccccc3Sc3ccc(C(F)(F)F)cc32)CC1 [trifluoperazine],NT Binding Efficacy % increase,[1]; [10],16 % increase
same,IC50,[3]; [agent] at which IP formation was decreased by 50%,> 100 µM
same,IP Formation Efficacy (% decrease),[3],14 % decrease
"CC(Cc1ccc(O)c(O)c1)C(C)Cc1ccc(O)c(O)c1 (stereo not shown) [NDGA, Nordihydroguaiaretic acid]",NT Binding Efficacy % increase,[1]; LOX blockers,230 % increase
same,EC50,[1]; [11],16 µM
same,NT Binding Assay,[1],+
same,Anti-cancer,[2],+
same,IC50,[4],0.3 to 2 µM
same,IC50,[3]; [8],7 µM
Cn1cc(C2=C(c3ccc(Cl)cc3Cl)C(=O)NC2=O)c2ccccc21 [SB-216763],NT Binding Assay,[1],+
same,Anti-cancer,[2],+
CCCc1c(OCCCCc2nnn[nH]2)ccc(C(C)=O)c1O [LY171883],NT Binding Efficacy % increase,[1]; LOX blockers,157 % increase
same,EC50,[1]; [11],34 µM
CC(=O)O[C@H]1C(=O)[C@@]2(C)[C@H]([C@H](OC(=O)c3ccccc3)[C@]3(O)C[C@H](OC(=O)[C@H](O)[C@@H](NC(=O)c4ccccc4)c4ccccc4)C(C)=C1C3(C)C)[C@]1(OC(C)=O)CO[C@@H]1C[C@@H]2O [Taxol],NT Binding Assay,[1],+
O=c1cc(-c2ccc(O)cc2)oc2cc(O)cc(O)c12 [Apigenin],NT Binding Assay,[1],+
same,Anti-cancer,[2],+
c1cnc2c(c1)ccc1cccnc12 [o-phenanthroline],NT Binding Assay,[1],+
same,Anti-cancer,[2],+
COc1ccc2c(c1)c(C1=C(c3c[nH]c4ccccc34)C(=O)NC1=O)cn2CCCN(C)C [Go-6983],NT Binding Assay,[1],+
same,Anti-cancer,[2],+
"COc1ccc(O)c(C(C)(C)C)c1 [BHA, butylated hydroxy anisole]",EC50,[1]; [6],110 µM
[BH4-].[Na+] [sodium borohydride],Effect on NT binding,[1],not much affected
same,Effect on NT binding in PC3 cells,[1]; used at 1-3 mM,without effect
COC(=O)C1=C(C)NC(C)=C([N+](=O)[O-])C1c1ccccc1C(F)(F)F (stereo not shown) [BayK-8644],EC50,[1]; [6],16 µM
bisindole maleimide,NT Binding Assay,[1],+
same,Anti-cancer,[2],+
"COCCOC(=O)C1=C(C)NC(C)=C(C(=O)OC(C)C)C1c1cccc([N+](=O)[O-])c1 (stereo not shown) [NIM, nimodipine]",IC50,[3]; [7],6 µM
O=C1O[C@H]([C@@H](O)CO)C(O)=C1O [ascorbic acid],Effect on NT binding,[1]; [9],not much affected
same,Effect on NT binding in PC3 cells,[1]; used at 20-180 μM,ineffective
"O=C(/C=C/c1ccc(O)c(O)c1)OCCc1ccccc1 [CAPE, caffeic acid phenethyl ester]",NT Binding Efficacy % increase,[1]; LOX blockers,220 % increase
same,NT binding increased as much as / up to (fold),[1],≤ 2.8 fold
same,IC50,[3]; [8],18 µM
CCCCCC(O)c1cccc(OCc2ccc3ccccc3n2)c1 (stereo not shown) [Rev5901],EC50,[1]; [11],19 µM
same,NT binding increased as much as / up to (fold),[1],≤ 2.4 fold
same,IC50,[4],10 µM
same,IC50,[3]; [8],8 µM
Cc1c(C)c2c(c(C)c1O)CCC(C)(C(=O)O)O2 (stereo not shown) [trolox],Effect on NT binding,[1]; [9],not much affected
same,Effect on NT binding in PC3 cells,[1]; used at 10-100 μM,without effect
O=CC[C@@H](O)[C@H](O)[C@H](O)CO [2-deoxyglucose],NT Binding Assay,[1],+
same,Anti-cancer,[2],+
CC1=C(/C=C/C(C)=C/C=C/C(C)=C/C=C/C=C(C)/C=C/C=C(C)/C=C/C2=C(C)CCCC2(C)C)C(C)(C)CCC1 [β-carotene],Effect on NT binding in PC3 cells,[1]; used at 20-180 μM,ineffective
N.N.[Cl][Pt][Cl] [cis-platin],NT Binding Assay,[1],+
same,Anti-cancer,[2],+
COC(=O)C1=C(C)NC(C)=C(C(=O)OCCN(C)Cc2ccccc2)C1c1cccc([N+](=O)[O-])c1 (stereo not shown) [nicardipine],IC50,[5],0.1 µM
same,IC50,[3]; [7],3 µM
"O=C(O)CN(CCOCCOCCN(CC(=O)O)CC(=O)O)CC(=O)O [EGTA, ethylene glycol tetra-acetic acid]",Increase in NT binding,[1],38±6 % increase
N[C@@H](CCC(=O)N[C@@H](CS)C(=O)NCC(=O)O)C(=O)O [glutathione],Effect on NT binding in PC3 cells,[1]; used at 1-3 mM,without effect
CCNC(=O)[C@H]1O[C@@H](n2cnc3c(N)nc(NCCc4ccc(CCC(=O)O)cc4)nc32)[C@H](O)[C@@H]1O [CGS21683],EC50,[1]; [11],22 µM
same,IC50,[4],0.01 to 1 µM
Cc1cc2nc3c(=O)[nH]c(=O)nc-3n(C[C@H](O)[C@H](O)[C@H](O)CO)c2cc1C [riboflavin],Effect on NT binding,[1]; [9],not much affected
same,Effect on NT binding in PC3 cells,[1]; used at 20-180 μM,ineffective
Cc1cc(C)c(/C=C2\C(=O)Nc3ccccc32)[nH]1 [SU5416],Anti-cancer,[2],+
"CC(=O)OCOC(=O)CN(CC(=O)OCOC(C)=O)c1ccccc1OCCOc1ccccc1N(CC(=O)OCOC(C)=O)CC(=O)OCOC(C)=O [BAPTA-AM, 1,2-bis(o-aminophenoxy)ethane-N,N,N′,N′-tetraacetic acid tetra(acetoxymethyl) ester]",Effect on NT binding,[1]; 50 μM BAPTA-AM,nor was NT binding altered
O=c1oc2c(O)c(O)cc3c(=O)oc4c(O)c(O)cc1c4c23 [ellagic acid],Effect on NT binding in PC3 cells,[1]; used at 10-100 μM,without effect
"CCCCCC#CCC#CCC#CCC#CCCCC(=O)O [ETYA, 5,8,11,14-eicosatetraynoic acid]",NT Binding Efficacy % increase,[1]; LOX blockers,100 % increase
same,EC50,[1]; [11],50 µM
same,IC50,[4],6 to 50 µM
same,IC50,[3]; [8],32 µM
Oc1cc(O)c2c(c1)O[C@H](c1ccc(O)c(O)c1)[C@@H](O)C2 [(+)-catechin],Effect on NT binding in PC3 cells,[1]; used at 10-100 μM,without effect
CCOC(=O)C1=C(C)NC(C)=C(C(=O)OC)C1c1cccc(Cl)c1Cl (stereo not shown) [felodipine],IC50,[3]; [7],1 µM
"Cc1cc2c(C(C)C)c(O)c(O)c(C=O)c2c(O)c1-c1c(C)cc2c(C(C)C)c(O)c(O)c(C=O)c2c1O [Gossypol, gossypol]",IC50,[3]; [8],20 µM
COC(=O)c1c(C)[nH]c(C)c1C(=O)c1ccccc1Cc1ccccc1 [FPL-64176],EC50,[1]; [6],29 µM
"O=c1cc(-c2ccccc2)oc2cc(O)c(O)c(O)c12 [Baicalein, baicalein]",Anti-cancer,[2],+
same,IC50,[3]; [8],> 100 µM
Cc1c(C)c2c(c(C)c1O)CC[C@@](C)(CCC[C@H](C)CCC[C@H](C)CCCC(C)C)O2 [α-tocoferol],Effect on NT binding in PC3 cells,[1]; used at 20-180 μM,ineffective
CC(=O)N[C@@H](CS)C(=O)O [N-acetyl cysteine],Effect on NT binding in PC3 cells,[1]; used at 1-3 mM,without effect
Fc1ccc(C(c2ccc(F)cc2)N2CCN(C/C=C/c3ccccc3)CC2)cc1 [flunarizine],NT Binding Efficacy % increase,[1]; [10],45 % increase
(−)-epigallocatechin gallate,Effect on NT binding in PC3 cells,[1]; used at 10-100 μM,without effect
O=c1c(-c2ccc(O)cc2)coc2cc(O)cc(O)c12 [genistein],NT Binding Assay,[1],+
same,Anti-cancer,[2],+
Cc1ncc(C[n+]2csc(CCO)c2C)c(N)n1 [thiamine],Effect on NT binding,[1]; [9],not much affected
same,Effect on NT binding in PC3 cells,[1]; used at 20-180 μM,ineffective
Mevinolin,NT Binding Assay,[1],+
same,Anti-cancer,[2],+
CC/C(=C(/CC)c1ccc(O)cc1)c1ccc(O)cc1 [diethylstilbesterol],NT Binding Assay,[1],+
same,Anti-cancer,[2],+
c1ccc2c(c1)[I+]c1ccccc1-2 [Diphenylene iodonium],NT Binding Assay,[1],+
same,Anti-cancer,[2],+
same,IC50,[3]; [7],35 µM
COc1cc2ncnc(Nc3cccc(Cl)c3)c2cc1OC [AG1478],NT Binding Assay,[1],+
same,Anti-cancer,[2],+
C=C(C)[C@H]1Cc2c(ccc3c2O[C@@H]2COc4cc(OC)c(OC)cc4[C@@H]2C3=O)O1 [rotenone],NT Binding Assay,[1],+
same,Anti-cancer,[2],+
COc1ccc2cc1Oc1ccc(cc1)C[C@H]1c3cc(c(OC)cc3CCN1C)Oc1c(OC)c(OC)cc3c1[C@H](C2)N(C)CC3 [tetrandrine],NT Binding Efficacy % increase,[1]; [10],35 % increase
CC(C)=CCCC(C)=CCCC(C)=CCO [farnesol],NT Binding Assay,[1],+
same,Anti-cancer,[2],+

# From patent publication US7507547B2, “Screening assays for antioxidants and antiproliferative compounds” (University of Massachusetts, priority 2004, dated 2009)
